Measured values from a melting point compilation (Tetko et al.; mined from patent text by program, amines drawn as free bases though some values may be those of a salt).

Q: With `CC1Nc2cc(-c3ccc(Cl)cc3)ccc2NC1=O` (stereo not drawn) as the compound, how does the melting point read?
A: 228 to 230 °C

Q: Which melting point does the source give for `CCCC[C@H](NC(=O)[C@H](CC(C)C)NC(=O)c1ccccc1F)C(=O)CSCc1ccco1` here?
A: 102 to 103 °C

Q: With `Cn1c(C#N)ccc1-c1ccc2c(c1)C(C)(C)OC(=S)N2` as the compound, how does the melting point read?
A: 228 to 229 °C

Q: With `Cc1nc2cc3[nH]c(-c4ccncc4)nc3cc2s1` as the compound, how does the melting point read?
A: > 300 °C

Q: For `Fc1ccc(-c2ccc(-c3cn([C@H]4CN5CCC4CC5)nn3)cc2)cn1`, which melting point is on record?
A: 181 °C

Q: For `CC(=NOCCO)c1ccc(S(=O)(=O)c2ccccc2)nc1`, which melting point is on record?
A: 77 to 78 °C

Q: Which melting point does the source give for `CCOC(=O)CCc1cccc2c(=O)c3cc(C(=O)OC)c(OCCCCC=Cc4ccc(OC)cc4)cc3oc12` here?
A: 107 to 109 °C

Q: For `Cc1cc(-c2cnn3c(C(F)(F)F)cc(-c4ccc(Br)cc4)nc23)cc(C)n1`, which melting point is on record?
A: 258 °C

Q: For `O=C(O)Cc1c(C(=O)c2ccc(-c3ccccc3)cc2)[nH]c2cc(Cl)ccc12`, which melting point is on record?
A: 228 to 231 °C

Q: For `CN(C)CCNC(=O)c1cccc(-c2ccc3c(c2)N(Cc2ccc(Cl)cc2Cl)CC3)c1`, which melting point is on record?
A: 122 to 123 °C

Q: With `CNC(=O)[C@@H](O)[C@H](Sc1cc(C)ccc1N)c1ccc(C)cc1` as the compound, how does the melting point read?
A: 168 to 170 °C

Q: With `O=C(NC1CC1)c1cn2c(NCCCCCCNS(=O)(=O)c3ccccc3[N+](=O)[O-])nsc2n1` as the compound, how does the melting point read?
A: 170 to 171 °C

Q: With `N#Cc1ccc([N+](=O)[O-])cc1[N+](=O)[O-]` as the compound, how does the melting point read?
A: 88 to 92 °C

Q: With `O=C(O)COc1cccc2c1CCc1sc(Sc3ccc([N+](=O)[O-])cc3[N+](=O)[O-])nc1-2` as the compound, how does the melting point read?
A: 223 to 226 °C

Q: With `Cc1nc(C(C)O)cn1Cc1ccccc1` (stereo not drawn) as the compound, how does the melting point read?
A: 162 to 168 °C

Q: Which melting point does the source give for `CCCCC(CC)COc1ccc2cc3cc(OCC(CC)CCCC)ccc3cc2c1` (stereo not drawn) here?
A: 60 to 62 °C

Q: For `CC(C)Oc1cc(NC(=O)C2CCCCN2)c(F)cc1Cl` (stereo not drawn), which melting point is on record?
A: 96 to 98 °C

Q: For `COc1cccc(OC)c1-c1ccc(C[C@H](NC(=O)c2c(Cl)cc(-c3ccc[nH]3)cc2Cl)C(=O)O)cc1`, which melting point is on record?
A: 250 °C

Q: With `CC(C)(O)C#Cc1ccc2c(c1)NC(=O)CC(c1cccc(C#N)c1)=N2` as the compound, how does the melting point read?
A: 243 °C

Q: With `CCCOc1ccccc1-c1ccc(C(=O)O)c(=O)[nH]1` as the compound, how does the melting point read?
A: 194 to 196 °C

Q: With `CCC(=O)NC1=NN(c2ccc(F)cc2)C(C)C1` (stereo not drawn) as the compound, how does the melting point read?
A: 125 to 126 °C

Q: With `Oc1ccc(N2CCN(Cc3c[nH]c4ncccc34)CC2)cc1` as the compound, how does the melting point read?
A: 197 to 200 °C

Q: Which melting point does the source give for `Nc1cc(F)c(F)c(Cl)c1Cl` here?
A: 94 to 97.5 °C

Q: For `CCn1cc(C(=O)O)c(=O)c2ccc(N)cc21`, which melting point is on record?
A: 304 to 307 °C

Q: For `CC(C)c1cccc(CCCn2ccnc2)c1NC(=O)CC1c2ccccc2Oc2ccccc21`, which melting point is on record?
A: 194 to 195 °C

Q: Which melting point does the source give for `CCn1cc(C(=O)O)c(=O)c2cc(F)c(N3CCN(C(=O)OC(OC(=O)c4ccccc4)C(=O)OC(C)C)CC3)cc21` (stereo not drawn) here?
A: 135 to 143 °C

Q: With `O=C1c2ccccc2S(=O)(=O)N1CCNCC1COc2ccccc2O1` (stereo not drawn) as the compound, how does the melting point read?
A: 181 °C

Q: With `COc1ccnc(N2CCN(C(=S)c3ccccc3)CC2)n1` as the compound, how does the melting point read?
A: 125 to 129 °C

Q: Which melting point does the source give for `COc1ccc(-c2cc(-c3ccccc3)nc(C)c2C(=O)O)cc1OC` here?
A: 208 °C

Q: With `CCc1nn(C[C@@H]2CCCN2C)c(C(N)=O)c1[N+](=O)[O-]` as the compound, how does the melting point read?
A: 148 to 150 °C

Q: With `OCCCc1cncn1Cc1noc2ccccc12` as the compound, how does the melting point read?
A: 129 to 131 °C

Q: With `CNC(=O)c1cc(-c2ccc(OC)c(F)c2)nn(CC(C)C)c1=O` as the compound, how does the melting point read?
A: 153 to 155 °C

Q: Which melting point does the source give for `O=c1oc(-c2cccc(C(F)(F)F)c2)nc2cccc(Cl)c12` here?
A: 116 to 120 °C

Q: For `CN(C)C=Cc1cc(Cl)c([N+](=O)[O-])cc1Cl`, which melting point is on record?
A: 173 to 175 °C

Q: With `Cc1cccc(COc2cccnc2NC(=S)Nc2ccc(Cl)cc2)c1F` as the compound, how does the melting point read?
A: 184 to 187 °C

Q: Which melting point does the source give for `NS(=O)(=O)c1cccc(NC(=O)NC2N=C(c3ccccc3F)c3ccccc3N(CC(=O)N3CC4CCC(CC4)C3)C2=O)c1` (racemic) here?
A: 221 to 226 °C

Q: Which melting point does the source give for `COc1cc(C2COc3c(C)c(C)c(NC(=O)CC(C)(C)C)c(C)c32)ccc1C(C)=O` (stereo not drawn) here?
A: 131 to 133 °C

Q: Which melting point does the source give for `Cc1cc(F)ccc1Oc1ccc(C2=CC=CN3CCS(=O)(=O)N=C23)cc1` here?
A: 240 to 242 °C
